Measured values as given in PMC2825241, “Uptake of purines in Plasmodium falciparum-infected human erythrocytes is mostly mediated by the human Equilibrative Nucleoside Transporter and the human Facilitative Nucleobase Transporter” (2010).

Molecular target: T1, human equilibrative nucleoside transporter (hENT1) (Homo sapiens, UniProt Q99808)
T1 construct: gene SLC29A1; endogenous transporter in intact human erythrocytes
T1 sequence (Q99808 2-456): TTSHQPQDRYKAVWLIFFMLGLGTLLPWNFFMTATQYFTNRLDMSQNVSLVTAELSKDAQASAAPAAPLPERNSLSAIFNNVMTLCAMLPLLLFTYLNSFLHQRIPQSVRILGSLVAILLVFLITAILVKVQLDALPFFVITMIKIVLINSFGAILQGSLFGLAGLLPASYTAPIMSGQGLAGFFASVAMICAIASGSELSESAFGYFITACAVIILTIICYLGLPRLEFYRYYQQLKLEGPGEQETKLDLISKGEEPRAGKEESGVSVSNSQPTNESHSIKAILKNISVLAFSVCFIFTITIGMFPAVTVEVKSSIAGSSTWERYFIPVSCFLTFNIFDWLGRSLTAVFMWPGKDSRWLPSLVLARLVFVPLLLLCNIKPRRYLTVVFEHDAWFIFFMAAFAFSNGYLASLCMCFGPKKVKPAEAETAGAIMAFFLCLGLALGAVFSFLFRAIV
Experiment: saturable [3H]-uridine uptake into uninfected human erythrocytes (Km)
Format: cell-based

With O=c1ccn([C@@H]2O[C@H](CO)[C@@H](O)[C@H]2O)c(=O)[nH]1 [uridine] as the compound, how does the Km read?
Its Km is 177 ± 30 µM.
